Assay results reported in US20260174875A1 (Novo Nordisk A/S, priority 2023, published 2026).
Numbered stars: 1 amine (or outer) side, 2 acyl side, 3 side chain; on linkers, the order of the positions; unused ones are H or OH. Square brackets hold non-standard residues; d marks the D form. Side chains are listed from the residue outwards. * marks the point of attachment. C18 diacid = O=C(O)CCCCCCCCCCCCCCCCC(=O)*; γGlu = O=C(O)[C@H](CCC(=O)[*:2])N[*:1]; AEEA = NCCOCCOCC(=O)O; Aib = CC(C)(N)C(=O)O

molecular target: T1, human GLP-1 receptor (hGLP-1R) (Homo sapiens, UniProt P43220); test: GLP-1 receptor assay, method A (CRE-luciferase reporter, BHK cells); assay type: cell-based; conditions: hGLP-1R Potency, 1% HSA, EC50, method A, in the presence of 1% HSA
T1 construct: expressed in transfected cells
Protocol: (§1) To assess how the activation of the receptors is potentially influenced by the presence of human serum albumin (HSA), the in vitro assays were performed in the absence of HSA and presence of 1% (w/v) HSA.
Cells at approximately 80-90% confluence were washed once in PBS (Gibco 14190-094) and loosened from the cell flasks with Versene (Gibco, 15040-033). […] Cells were aliquoted and stored at −180° C. until use.
(§2) The assay buffer consisted of DMEM without phenol red (Gibco, 11880-028) supplemented with 1× GlutaMAX (Gibco, 35050-038), 10 mM HEPES (Gibco, 15630-056), 1% (w/v) ovalbumin (Sigma, A5503) and 0.1% (v/v) Pluronic F-68 (Gibco, 24040-032) either with HSA or without HSA (Sigma, A9511).
Frozen stocks of hGLP-1R BHK CRE-Luc cells were thawed in a 37° C. water bath, washed once in PBS (Gibco 14190-094) and diluted to 1.5×10^6 (1.5E+6) cells/mL in assay buffer with or without 2% (w/v) HSA (Sigma, A9511). […] The assay plates were incubated for 3 hours at 37° C. in 5% CO2, left at room temperature for 5 minutes after which 100 μL steadylite Plus™ (PerkinElmer/Revvity, 6066759) was added to each well. Plates were sealed and incubated at room temperature with gentle shaking for 30 minutes while protected from light. Luminescence was detected on a luminescence plate reader e.g., a Synergy 2 (BioTek).

T1 sequence (P43220 24-463): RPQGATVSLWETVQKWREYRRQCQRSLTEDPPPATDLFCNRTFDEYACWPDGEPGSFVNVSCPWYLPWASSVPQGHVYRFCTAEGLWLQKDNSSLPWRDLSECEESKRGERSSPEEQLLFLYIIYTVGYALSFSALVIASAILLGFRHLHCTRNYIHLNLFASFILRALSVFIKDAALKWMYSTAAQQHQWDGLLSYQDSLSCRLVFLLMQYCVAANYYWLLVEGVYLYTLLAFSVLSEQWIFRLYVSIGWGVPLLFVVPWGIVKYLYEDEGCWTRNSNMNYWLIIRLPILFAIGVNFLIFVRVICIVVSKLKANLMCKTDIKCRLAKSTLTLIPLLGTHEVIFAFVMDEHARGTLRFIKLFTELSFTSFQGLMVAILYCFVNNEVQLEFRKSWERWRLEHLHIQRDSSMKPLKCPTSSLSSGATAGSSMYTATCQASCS

In order of rising EC50:
1. H[Aib]HGTFTSDYSILLEEQAAREFIEWLLAGGPSSGALQAPGQAPLASHLSTAQTARLSAELHK([AEEA-AEEA-γGlu-C18 diacid])LATLPRTETGSGSP-NH2 [Compound 108]  15 pM
2. H[Aib]HGTFTSDYSILLEEQAAREFIEWLLAGGPSSGEASHLSTAALGRLSAELHRLATLPK([AEEA-AEEA-γGlu-C18 diacid])TETGSGSP-NH2 [Compound 90]  38.6 pM
3. H[Aib]HGTFTSDYSILLEEQAAREFIEWLLAGGPSSGEASHLSTAALGRLSAELHK([AEEA-AEEA-γGlu-C18 diacid])LATLPRTETGSGSP-NH2 [Compound 88]  48.8 pM

same assay, conditions: method A, absence of HSA; read-out: hGLP-1R Potency, no HSA, EC50

In order of falling EC50:
1. H[Aib]HGTFTSDYSILLEEQAAREFIEWLLAGGPSSGALQAPGQAPLASHLSTAQTARLSAELHK([AEEA-AEEA-γGlu-C18 diacid])LATLPRTETGSGSP-NH2 [Compound 108]  4.57 pM
2. H[Aib]HGTFTSDYSILLEEQAAREFIEWLLAGGPSSGEASHLSTAALGRLSAELHRLATLPK([AEEA-AEEA-γGlu-C18 diacid])TETGSGSP-NH2 [Compound 90]  4.16 pM
3. H[Aib]HGTFTSDYSILLEEQAAREFIEWLLAGGPSSGEASHLSTAALGRLSAELHK([AEEA-AEEA-γGlu-C18 diacid])LATLPRTETGSGSP-NH2 [Compound 88]  4.12 pM

molecular target: T2, human GIP receptor (hGIPR) (Homo sapiens, UniProt P48546); test: GIP receptor assay, method A (CRE-luciferase reporter, BHK cells); assay type: cell-based; conditions: hGIPR Potency, 1% HSA, EC50, method A, in the presence of 1% HSA
T2 construct: expressed in transfected cells
T2 sequence (P48546 22-466): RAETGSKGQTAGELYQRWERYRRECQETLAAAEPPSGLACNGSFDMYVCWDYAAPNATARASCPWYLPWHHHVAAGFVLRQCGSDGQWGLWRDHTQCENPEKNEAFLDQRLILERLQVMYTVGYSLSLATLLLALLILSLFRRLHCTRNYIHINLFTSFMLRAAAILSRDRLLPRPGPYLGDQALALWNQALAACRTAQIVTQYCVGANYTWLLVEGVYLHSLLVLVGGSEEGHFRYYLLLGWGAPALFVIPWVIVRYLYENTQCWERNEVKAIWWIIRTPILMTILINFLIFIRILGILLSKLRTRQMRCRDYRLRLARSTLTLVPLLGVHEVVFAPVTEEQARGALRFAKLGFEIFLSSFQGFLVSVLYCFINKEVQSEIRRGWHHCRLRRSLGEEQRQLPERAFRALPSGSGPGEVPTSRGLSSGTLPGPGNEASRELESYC
Protocol: To assess how the activation of the receptors is potentially influenced by the presence of human serum albumin (HSA), the in vitro assays were performed in the absence of HSA and presence of 1% (w/v) HSA. Unless stated otherwise the reference to the “GIP receptor assay as described in Example 4” throughout the specification shall refer to the described herein assay procedure method A (hGIPR assay) in the absence of HSA.
Activation of the human GIP receptor leads to increased intra-cellular concentrations of cyclic AMP (cAMP) and the consequent transcription activation from promoters containing multiple copies of the cAMP response element (CRE). It is thus possible to measure GIP receptor activity using a CRE-luciferase reporter gene introduced into Baby Hamster Kidney (BHK) cells co-expressing the human GIP receptor.
Cells at about 80-90% confluency were washed once with PBS (Gibco 14190-094) and detached from the cell flasks with Versene (Gibco, 15040-066). After centrifugation, the cells were counted, resuspended and diluted to approximately 1.5-3.0×10^6 (1.5E+6 to 3.0E+6) cells/mL in Recovery Cell Culture Freezing Medium (Gibco, 12648-010) and stored at −180° C. in suitable aliquots until use.
as §2
On the day before the assay hGIPR BHK Cre-Luc cells were thawed and plated out in 96 well Culture Plates (PerkinElmer/Revvity, 6005680) at 5.0×10^3 (5.0E+3) cells/well in growth medium as described above. The plates were then incubated for 21-23 hours at 37° C. with 5% CO2. On the day of the assay GLP-1-/GIP-/amylin-receptor tri-agonists or reference compounds were diluted in assay buffer using a 7-point, 10-fold titration plus a blank (absence of compound). Each compound was diluted and tested in duplicates in each experiment. In the plates containing the cells the growth medium was removed, and cells were washed twice with 100 μL PBS (Gibco 14190-094). 50 μL of the test compound dilutions were added to the plates containing cells preceded by 50 μL assay buffer with or without 2% (w/v) HSA (Sigma, A9511). The cell plates were incubated for 3 hours in a 5% CO2 incubator at 37° C. The plates were then transferred to room temperature followed by addition of 100 μL steadylite Plus™ (PerkinElmer/Revvity, 6066759). The plates were sealed and shaken for 30 minutes at room temperature while protected from light. Finally, luminescence (as an indicator of receptor activation) was measured on a Mithras reader (Berthold Technologies, DE). The EC50-values [pM] were calculated by non-linear curve fitting applying a four-parameter logistic model (Hill slope=“shared value for all datasets”) using GraphPad Prism (GraphPad Software, Boston, MA, USA).

In order of falling EC50:
1. H[Aib]HGTFTSDYSILLEEQAAREFIEWLLAGGPSSGEASHLSTAALGRLSAELHK([AEEA-AEEA-γGlu-C18 diacid])LATLPRTETGSGSP-NH2 [Compound 88]  40.4 pM
2. H[Aib]HGTFTSDYSILLEEQAAREFIEWLLAGGPSSGEASHLSTAALGRLSAELHRLATLPK([AEEA-AEEA-γGlu-C18 diacid])TETGSGSP-NH2 [Compound 90]  32.5 pM
3. H[Aib]HGTFTSDYSILLEEQAAREFIEWLLAGGPSSGALQAPGQAPLASHLSTAQTARLSAELHK([AEEA-AEEA-γGlu-C18 diacid])LATLPRTETGSGSP-NH2 [Compound 108]  11.5 pM

same assay, conditions: method A, absence of HSA; read-out: hGIPR Potency, no HSA, EC50

In order of rising EC50:
1. H[Aib]HGTFTSDYSILLEEQAAREFIEWLLAGGPSSGALQAPGQAPLASHLSTAQTARLSAELHK([AEEA-AEEA-γGlu-C18 diacid])LATLPRTETGSGSP-NH2 [Compound 108]  4.01 pM
2. H[Aib]HGTFTSDYSILLEEQAAREFIEWLLAGGPSSGEASHLSTAALGRLSAELHRLATLPK([AEEA-AEEA-γGlu-C18 diacid])TETGSGSP-NH2 [Compound 90]  5.4 pM
3. H[Aib]HGTFTSDYSILLEEQAAREFIEWLLAGGPSSGEASHLSTAALGRLSAELHK([AEEA-AEEA-γGlu-C18 diacid])LATLPRTETGSGSP-NH2 [Compound 88]  5.68 pM

molecular target: T3, human amylin receptor (hAMYR3) (Homo sapiens, UniProt O60896+P30988); test: Amylin receptor assay, method A (CRE-luciferase reporter, BHK cells); assay type: cell-based; conditions: hAMYR3 Potency, 1% HSA, EC50, method A, in the presence of 1% HSA
T3 construct: host or cells: BHK cells (Hollex-1 line expressing hCTR(a) and CRE-Luc), further transfected with human RAMP3
Protocol: as §1
It is thus possible to measure hAMYR3 activity using a CRE-luciferase reporter gene introduced into Baby Hamster Kidney (BHK) cells co-expressing the hAMYR3.
The cell line was further transfected with human receptor modifying protein 3 (RAMP3) using standard methods.
After centrifugation, the cell pellet was resuspended and diluted to approximately 2.5-4.0×10^6 (2.5E+6 to 4.0E+6) cells/mL in Recovery™ Cell Culture Freezing Medium (Gibco, 12648-010). Cells were aliquoted and stored at −180° C. until use.
as §2, with “15630-056) and” for “15630-056),”, “either with or without” for “and”, “24040-032) and” for “24040-032)”, “with” for “with HSA”
The plate was incubated over night at 37° C. in 5% CO2. […] Luminescence was detected on a luminescence plate reader e.g., a Synergy 2 (BioTek).

T3 sequence (P30988 25-474): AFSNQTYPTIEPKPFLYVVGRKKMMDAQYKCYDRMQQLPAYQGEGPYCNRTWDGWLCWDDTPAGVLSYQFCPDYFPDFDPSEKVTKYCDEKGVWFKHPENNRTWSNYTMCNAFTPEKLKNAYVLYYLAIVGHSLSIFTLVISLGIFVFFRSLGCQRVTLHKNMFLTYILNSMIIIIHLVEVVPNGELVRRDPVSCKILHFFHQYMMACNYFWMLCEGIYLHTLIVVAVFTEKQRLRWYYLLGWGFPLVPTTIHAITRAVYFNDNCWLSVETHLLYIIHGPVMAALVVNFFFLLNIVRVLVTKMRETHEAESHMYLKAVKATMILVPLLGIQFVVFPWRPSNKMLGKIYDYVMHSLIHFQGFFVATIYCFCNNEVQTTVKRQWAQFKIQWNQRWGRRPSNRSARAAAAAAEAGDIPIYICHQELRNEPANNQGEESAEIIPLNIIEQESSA
T3 sequence (O60896 24-148): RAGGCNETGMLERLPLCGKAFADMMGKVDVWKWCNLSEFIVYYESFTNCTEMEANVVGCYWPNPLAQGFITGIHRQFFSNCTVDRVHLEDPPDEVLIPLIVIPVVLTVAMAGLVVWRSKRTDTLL

In order of falling EC50:
1. H[Aib]HGTFTSDYSILLEEQAAREFIEWLLAGGPSSGEASHLSTAALGRLSAELHRLATLPK([AEEA-AEEA-γGlu-C18 diacid])TETGSGSP-NH2 [Compound 90]  0.183 nM
2. H[Aib]HGTFTSDYSILLEEQAAREFIEWLLAGGPSSGEASHLSTAALGRLSAELHK([AEEA-AEEA-γGlu-C18 diacid])LATLPRTETGSGSP-NH2 [Compound 88]  0.102 nM
3. H[Aib]HGTFTSDYSILLEEQAAREFIEWLLAGGPSSGALQAPGQAPLASHLSTAQTARLSAELHK([AEEA-AEEA-γGlu-C18 diacid])LATLPRTETGSGSP-NH2 [Compound 108]  0.0599 nM

same assay, conditions: method A, absence of HSA; read-out: hAMYR3 Potency, no HSA, EC50

In order of falling EC50:
1. H[Aib]HGTFTSDYSILLEEQAAREFIEWLLAGGPSSGEASHLSTAALGRLSAELHRLATLPK([AEEA-AEEA-γGlu-C18 diacid])TETGSGSP-NH2 [Compound 90]  0.00545 nM
2. H[Aib]HGTFTSDYSILLEEQAAREFIEWLLAGGPSSGEASHLSTAALGRLSAELHK([AEEA-AEEA-γGlu-C18 diacid])LATLPRTETGSGSP-NH2 [Compound 88]  0.0037 nM
3. H[Aib]HGTFTSDYSILLEEQAAREFIEWLLAGGPSSGALQAPGQAPLASHLSTAQTARLSAELHK([AEEA-AEEA-γGlu-C18 diacid])LATLPRTETGSGSP-NH2 [Compound 108]  0.00248 nM
